Results from patent US20260297042A1, “BIARYLAMIDE DERIVATIVES AND THEIR USE AS PKMYT1 INHIBITORS” (CANCER RESEARCH TECHNOLOGY LIMITED, priority 2023, published 2026).
Structures can show the parent of a compound that is named as a salt.

Experiments:
Human PKMYT1 = molecular target: T1, Human PKMYT1 (Homo sapiens, UniProt Q99640); experiment: PKMYT1 biochemical ADP-Glo enzymatic assay; conditions: ADP-Glo
T1 construct: Human PKMYT1 75-362 was cloned as a TEV cleavable 6xHis fusion; 6xHis (TEV cleavable) (cleaved yes); made in house; host or cells: bacterial cells
T1 sequence (Q99640 75-362): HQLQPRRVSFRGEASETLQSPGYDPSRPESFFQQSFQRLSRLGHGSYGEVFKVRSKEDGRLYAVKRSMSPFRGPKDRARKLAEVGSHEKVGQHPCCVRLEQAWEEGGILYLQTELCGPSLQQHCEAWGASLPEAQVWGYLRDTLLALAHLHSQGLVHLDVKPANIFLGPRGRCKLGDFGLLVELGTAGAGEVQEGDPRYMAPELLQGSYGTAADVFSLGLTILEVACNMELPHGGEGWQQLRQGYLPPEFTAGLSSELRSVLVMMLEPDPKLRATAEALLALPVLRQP
In short: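 Intrinsic ATPase activity of E. coli-expressed, tag-cleaved human PKMYT1 kinase domain (75-362), 15 nM, with 500 µM ATP in HEPES pH 7.5/MgCl2/EGTA/Brij-35, 1% DMSO, 60 min at 26 °C. ADP formed was read by ADP-Glo Max luminescence; IC50 from 10-point, 3-fold dilution curves.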

WEE1 = molecular target: T2, WEE1 (Homo sapiens, UniProt P30291); experiment: Selectivity versus WEE1 assay (ADP-Glo enzymatic assay); assay type: biochemical; conditions: for IC50: ADP-Glo; for PKMYT1 vs. WEE1 selectivity: fold difference in selectivity for PKMYT1 over WEE1
T2 construct: purchased Thermo Fisher PR7373A
T2 sequence (P30291 whole entry): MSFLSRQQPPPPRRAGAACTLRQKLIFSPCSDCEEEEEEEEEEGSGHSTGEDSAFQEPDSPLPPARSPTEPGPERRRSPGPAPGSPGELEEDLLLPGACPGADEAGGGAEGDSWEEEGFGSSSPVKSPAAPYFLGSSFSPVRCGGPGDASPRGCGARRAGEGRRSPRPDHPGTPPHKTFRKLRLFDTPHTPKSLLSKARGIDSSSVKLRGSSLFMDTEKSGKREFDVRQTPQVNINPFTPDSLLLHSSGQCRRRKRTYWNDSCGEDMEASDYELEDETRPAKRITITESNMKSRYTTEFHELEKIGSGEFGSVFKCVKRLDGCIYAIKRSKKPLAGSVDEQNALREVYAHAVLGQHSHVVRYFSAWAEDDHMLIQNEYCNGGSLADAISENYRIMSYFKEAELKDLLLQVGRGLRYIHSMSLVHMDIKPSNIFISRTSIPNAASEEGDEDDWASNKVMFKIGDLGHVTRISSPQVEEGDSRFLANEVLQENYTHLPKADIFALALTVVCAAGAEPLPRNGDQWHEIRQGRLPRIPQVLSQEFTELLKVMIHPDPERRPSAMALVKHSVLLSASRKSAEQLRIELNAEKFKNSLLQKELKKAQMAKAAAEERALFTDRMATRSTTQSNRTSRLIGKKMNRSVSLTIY
In short: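 Kinase at 15 nM final in 50 mM HEPES pH 7.5, 10 mM MgCl2, 1 mM EGTA, 0.01% Brij-35, 1% DMSO was started with 30 µM ATP and run 60 min at 26° C. ADP formed was read by ADP-Glo luminescence; IC50 came from dose-response curves.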

OVCAR 3 cells = experiment: Cancer cell line proliferation assay, ATP-based cell viability (Cell Titre Glow), OVCAR 3 (CCNE1-amplified); conditions: KYSE30 (normal CCNE1) GI50 vs. OVCAR 3 (CCNE1-amplified) GI50
In short: (§1)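 CellTiter-Glo luminescence endpoint; PKMYT1 inhibitor exposure; GI50 = conc. for 50% growth inhibition, curve-fitted.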

KYSE-30 cells = experiment: Cancer cell line proliferation assay, ATP-based cell viability (Cell Titre Glow), KYSE-30 (normal CCNE1); conditions: Homo sapiens, KYSE-30 cells (normal CCNE1), concentration that achieves 50% cell growth proliferation inhibition, read-out: KYSE30 Gl50
In short: as §1

[1] = molecular target: T3, Cellular PKMYT1 Biomarker CDK1 pT14 (Homo sapiens, UniProt Q99640); experiment: Inhibition of cellular PKMYT1 biomarker CDK1 pT14 in OVCAR 3 cells (immunoblot); assay type: cell-based; conditions: 20 hours incubation
T3 construct: read-out CDK1 phospho-T14 immunoblot
T3 sequence (Q99640 1-499): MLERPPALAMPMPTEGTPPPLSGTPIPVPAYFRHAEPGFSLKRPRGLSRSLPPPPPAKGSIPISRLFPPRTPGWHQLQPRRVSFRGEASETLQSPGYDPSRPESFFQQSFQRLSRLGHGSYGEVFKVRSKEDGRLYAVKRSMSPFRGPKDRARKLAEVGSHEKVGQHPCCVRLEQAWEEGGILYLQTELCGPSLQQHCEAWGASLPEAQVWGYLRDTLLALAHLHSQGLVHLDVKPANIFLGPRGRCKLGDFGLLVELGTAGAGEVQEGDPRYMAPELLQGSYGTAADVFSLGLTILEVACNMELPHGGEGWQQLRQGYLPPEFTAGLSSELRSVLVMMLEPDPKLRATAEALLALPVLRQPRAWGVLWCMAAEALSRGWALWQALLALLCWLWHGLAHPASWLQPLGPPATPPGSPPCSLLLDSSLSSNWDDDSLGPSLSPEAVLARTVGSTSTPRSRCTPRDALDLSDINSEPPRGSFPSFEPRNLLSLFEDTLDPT
In short: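 Confluent OVCAR 3 cells treated with a compound concentration range for 20 h at 37 °C. Lysates analysed by automated capillary immunoblot for CDK1 phospho-T14, with vinculin, fluorescence detection; IC50 by regression.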

[2] = 15 nM PKMYT1 kinase domain, 500 µM ATP, 60 minutes at 26° C., banded
[3] = 15 nM WEE1, 60 minutes at 26° C., banded
[4] = banded, ">N" = at least in this band but could be higher
[5] = PKMYT1 kinase domain 15 nM, banded values

| SMILES | IC50 (Human PKMYT1; [2]) | IC50 (WEE1; [3]) | PKMYT1 vs. WEE1 selectivity (WEE1; [4]) | Selectivity ratio KYSE30 Gl50 vs. OVCAR3 Gl50 (OVCAR 3 cells) | GI50 (KYSE-30 cells) | IC50 [1] | IC50 (Human PKMYT1; [5]) | IC50 (WEE1; WEE1 15 nM, banded values) | PKMYT1 vs. WEE1 selectivity (WEE1; banded) |
| --- | --- | --- | --- | --- | --- | --- | --- | --- | --- |
| Cc1ccc(O)c(C)c1NC(=O)c1cnc(Nc2cccc(-c3cnn(C)c3)n2)s1 [BAA-390, N-(3-hydroxy-2,6-dimethylphenyl)-2-((6-(1-methyl-1H-pyrazol-4-yl)pyridin-2-yl)amino)thiazole-5-carboxamide] | < 50 nM | 1000 to 11000 nM | X (100-<1000 fold) | Y (>20 fold) | 500 to 5000 nM | < 100 nM | – | – | – |
| Cc1nc(Nc2ncc(C(=O)Nc3c(C)ccc(O)c3C)s2)cc(N2CCOCC2)n1 [BAA-572, N-(3-hydroxy-2,6-dimethylphenyl)-2-((2-methyl-6-morpholinopyrimidin-4-yl)amino)thiazole-5-carboxamide] | – | – | – | Y (>20 fold) | 500 to 5000 nM | < 100 nM | < 50 nM | 50 to 1000 nM | W (10-<100 fold) |
| CCn1nc(Nc2ncc(C(=O)Nc3c(C)ccc(O)c3C)s2)c2cc(F)ccc21 [BAA-459, 2-((1-ethyl-5-fluoro-1H-indazol-3-yl)amino)-N-(3-hydroxy-2,6-dimethylphenyl)thiazole-5-carboxamide] | – | – | – | Y (>20 fold) | > 5000 nM | < 100 nM | 50 to 1000 nM | > 11000 nM | X (100-<1000 fold) |
| CCc1cn(CC#N)nc1Nc1ncc(C(=O)Nc2c(C)ccc(O)c2C)s1 [BAA-590, 2-((1-(cyanomethyl)-4-ethyl-1H-pyrazol-3-yl)amino)-N-(3-hydroxy-2,6-dimethylphenyl)thiazole-5-carboxamide. TFA salt] | – | – | – | Y (>20 fold) | > 5000 nM | < 100 nM | < 50 nM | 50 to 1000 nM | W (10-<100 fold) |
| Cc1ccc(O)c(C)c1NC(=O)c1cnc(Nc2nc(N3CCN(C)CC3)ccc2Cl)s1 [BAA-414, 2-((3-chloro-6-(4-methylpiperazin-1-yl)pyridin-2-yl)amino)-N-(3-hydroxy-2,6-dimethylphenyl)thiazole-5-carboxamide] | – | – | – | Y (>20 fold) | 500 to 5000 nM | < 100 nM | < 50 nM | 1000 to 11000 nM | X (100-<1000 fold) |
| CCN(CC)C(=O)Cn1cc(Cl)c(Nc2ncc(C(=O)Nc3c(C)ccc(O)c3C)s2)n1 [BAA-560, 2-((4-chloro-1-(2-(diethylamino)-2-oxoethyl)-1H-pyrazol-3-yl)amino)-N-(3-hydroxy-2,6-dimethylphenyl)thiazole-5-carboxamide] | – | – | – | Y (>20 fold) | 500 to 5000 nM | < 100 nM | < 50 nM | 1000 to 11000 nM | X (100-<1000 fold) |
| Cc1cn(CC(=O)N2CCC2C)nc1Nc1ncc(C(=O)Nc2c(C)ccc(O)c2C)s1 (stereo not drawn) [BAA-598, N-(3-hydroxy-2,6-dimethylphenyl)-2-((4-methyl-1-(2-(2-methylazetidin-1-yl)-2-oxoethyl)-1H-pyrazol-3-yl)amino)thiazole-5-carboxamide] | – | – | – | Y (>20 fold) | 500 to 5000 nM | < 100 nM | < 50 nM | 1000 to 11000 nM | X (100-<1000 fold) |
| Cc1ccc(O)c(C)c1NC(=O)c1cnc(Nc2cccc(N(C)C)n2)s1 [BAA-417, 2-((6-(dimethylamino)pyridin-2-yl)amino)-N-(3-hydroxy-2,6-dimethylphenyl)thiazole-5-carboxamide] | – | – | – | Y (>20 fold) | 500 to 5000 nM | 100 to 1000 nM | < 50 nM | > 11000 nM | X (100-<1000 fold) |
| Cc1ccc(O)c(C)c1NC(=O)c1cnc(Nc2cc(N3CCN(C)CC3)ncn2)s1 [BAA-581, N-(3-hydroxy-2,6-dimethylphenyl)-2-((6-(4-methylpiperazin-1-yl)pyrimidin-4-yl)amino)thiazole-5-carboxamide] | – | – | – | Y (>20 fold) | > 5000 nM | < 100 nM | < 50 nM | 50 to 1000 nM | W (10-<100 fold) |
| Cc1ccc(O)c(C)c1NC(=O)c1cnc(Nc2cccc(N3CCN(C)CC3)n2)s1 [BAA-423, N-(3-hydroxy-2,6-dimethylphenyl)-2-((6-(4-methylpiperazin-1-yl)pyridin-2-yl)amino)thiazole-5-carboxamide] | – | – | – | Y (>20 fold) | 500 to 5000 nM | < 100 nM | < 50 nM | 1000 to 11000 nM | W (10-<100 fold) |
| Cc1cn(CC(=O)N2CCC(C(F)(F)F)C2)nc1Nc1ncc(C(=O)Nc2c(C)ccc(O)c2C)s1 (stereo not drawn) [BAA-504, N-(3-hydroxy-2,6-dimethylphenyl)-2-((4-methyl-1-(2-oxo-2-(3-(trifluoromethyl)pyrrolidin-1-yl)ethyl)-1H-pyrazol-3-yl)amino)thiazole-5-carboxamide] | – | – | – | Y (>20 fold) | > 5000 nM | 100 to 1000 nM | < 50 nM | 1000 to 11000 nM | X (100-<1000 fold) |
| CCN(C(=O)C(CO)n1cc(C)c(Nc2ncc(C(=O)Nc3c(C)ccc(O)c3C)s2)n1)C1CC1 (stereo not drawn) [BAA-592, 2-((1-(1-(cyclopropyl(ethyl)amino)-3-hydroxy-1-oxopropan-2-yl)-4-methyl-1H-pyrazol-3-yl)amino)-N-(3-hydroxy-2,6-dimethylphenyl)thiazole-5-carboxamide] | – | – | – | Y (>20 fold) | > 5000 nM | < 100 nM | < 50 nM | 1000 to 11000 nM | X (100-<1000 fold) |
| Cc1cc(Nc2ncc(C(=O)Nc3c(C)ccc(O)c3C)s2)nc(N2CCC(F)(F)CC2)n1 [BAA-313, 2-((2-(4,4-difluoropiperidin-1-yl)-6-methylpyrimidin-4-yl)amino)-N-(3-hydroxy-2,6-dimethylphenyl)thiazole-5-carboxamide] | 50 to 1000 nM | > 11000 nM | X (100-<1000 fold) | Y (>20 fold) | 500 to 5000 nM | < 100 nM | – | – | – |
